# According to PubChem BioAssay (NCI):
#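 How tested: cells in 96-well plates exposed to compound for 48 hours at five concentrations. The concentration for 50% growth inhibition is given as GI50. TGI: total growth inhibition.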
# Assays:
# Experiment in all cases: inhibition of tumour cell growth, NCI panel, 48 h
# HCT-15 colon = system: HCT-15 colon
# HT29 colon = system: HT29 colon
# M14 melanoma = system: M14 melanoma
# NCI-H226 lung = system: NCI-H226 lung
# NCI-H460 lung = system: NCI-H460 lung
# OVCAR-5 ovarian = system: OVCAR-5 ovarian
# SF-268 CNS = system: SF-268 CNS
# SF-295 CNS = system: SF-295 CNS
# UACC-257 melanoma = system: UACC-257 melanoma
# NCI-H23 lung = system: NCI-H23 lung
Compound,TGI (HCT-15 colon),TGI (HT29 colon),TGI (M14 melanoma),TGI (NCI-H226 lung),TGI (NCI-H460 lung),TGI (OVCAR-5 ovarian),TGI (SF-268 CNS),TGI (SF-295 CNS),TGI (UACC-257 melanoma),TGI (NCI-H23 lung),GI50 (HT29 colon),GI50 (NCI-H23 lung),GI50 (NCI-H460 lung),GI50 (OVCAR-5 ovarian),GI50 (SF-295 CNS)
COc1ccccc1NC(=S)Nc1cc(C)ccn1,> 100 µM,> 100 µM,> 100 µM,> 100 µM,> 100 µM,> 100 µM,> 100 µM,> 100 µM,> 100 µM,,,,,,
CC(=O)O[C@@H]1O[Si](C(C)(C)C)(C(C)(C)C)[C@H](C)[C@H]1C,> 100 µM,55.6 µM,> 100 µM,> 100 µM,,> 100 µM,,> 100 µM,> 100 µM,> 100 µM,,,,,
CN(C)C(=O)C1CCN(Cc2c[nH]c3ccccc23)CC1,> 100 µM,> 100 µM,> 100 µM,> 100 µM,,> 100 µM,> 100 µM,> 100 µM,> 100 µM,> 100 µM,,,,,
COc1ccc2c(c1)C(N)=C(Cc1ccncc1)C2=O,> 100 µM,> 100 µM,> 100 µM,,> 100 µM,,> 100 µM,> 100 µM,> 100 µM,> 100 µM,,,,,
COC1(CC[C@H](C)COC2OC(CO)C(O)C(O)C2O)O[C@H]2C[C@H]3[C@@H]4CC=C5C[C@@H](OC6OC(CO)C(O)C(OC7OC(CO)C(O)C(O)C7O)C6OC6OC(C)C(O)C(O)C6O)CC[C@]5(C)[C@H]4CC[C@]3(C)[C@H]2[C@@H]1C (stereo not given in full),7.43 µM,> 21.8 µM,,18.6 µM,11.6 µM,> 32.5 µM,15.2 µM,10.1 µM,22 µM,18.9 µM,,,,,
COc1ccc(N2C(=O)/C(=C\c3cccc(Oc4ccccc4)c3)SC2c2ccccc2)cc1 (stereo not given),> 100 µM,,> 100 µM,> 100 µM,> 100 µM,> 100 µM,> 100 µM,> 100 µM,> 100 µM,> 100 µM,,,,,
O=C1CN(c2ccc(Cl)cc2)C(=O)CN1NCNN1CC(=O)N(c2ccc(Cl)cc2)CC1=O,> 100 µM,> 100 µM,> 100 µM,,> 100 µM,> 100 µM,> 100 µM,> 100 µM,> 100 µM,> 100 µM,,,,,
Cc1cc(C)n(C(=O)CSc2nnc(SCC(=O)n3nc(C)cc3C)s2)n1,> 100 µM,,> 100 µM,> 100 µM,> 100 µM,> 100 µM,> 100 µM,> 100 µM,> 100 µM,> 100 µM,,,,,
COc1ccc2nc3n(c2c1)C(c1c(Cl)cccc1Cl)SC3 (stereo not given),> 100 µM,,> 100 µM,> 100 µM,> 100 µM,> 100 µM,,> 100 µM,> 100 µM,> 100 µM,,,,,
Cc1ccc(C2CC(c3cccc(Nc4ccncc4)c3)=NN2c2ccccc2)cc1 (stereo not given),,5.63 µM,,,3.33 µM,3.19 µM,,3.17 µM,,2.97 µM,2.23 µM,1.53 µM,1.8 µM,1.68 µM,1.76 µM
CCOC(=O)NC(=S)c1ccc(O)c2ccccc12,> 100 µM,> 100 µM,> 100 µM,,> 100 µM,> 100 µM,> 100 µM,> 100 µM,> 100 µM,> 100 µM,,,,,
O=[N+]([O-])c1sc2ccc(Cl)cc2c1Nc1ccc(Cl)cc1,> 100 µM,> 100 µM,> 100 µM,> 100 µM,> 100 µM,> 100 µM,> 100 µM,> 100 µM,,> 100 µM,,,,,
Cc1c2c(ccc3ccccc32)c[n+]2ccccc12,> 100 µM,> 100 µM,40.9 µM,35.1 µM,,> 100 µM,11.3 µM,22.5 µM,26.5 µM,22.5 µM,,,,,
CCOC(=O)N1[C@@H]2CCC[C@@H]2C(=O)[C@@H]2CCC[C@@H]21,> 100 µM,> 100 µM,> 100 µM,> 100 µM,> 100 µM,> 100 µM,> 100 µM,,> 100 µM,> 100 µM,,,,,
O=C(O)c1nccnc1C(=O)O,> 100 µM,> 100 µM,,> 100 µM,> 100 µM,> 100 µM,> 100 µM,> 100 µM,> 100 µM,> 100 µM,,,,,
Cc1cc(C)n(CN(Cn2nc(C)cc2C)c2ccccc2)n1,50.2 µM,35.6 µM,31.1 µM,,> 100 µM,69.6 µM,52.6 µM,> 100 µM,61 µM,40.8 µM,,,,,
CN(C)c1ccc(C(=NN)c2ccc(N(C)C)cc2)cc1,> 40.9 µM,> 21.8 µM,> 100 µM,> 62.4 µM,,> 100 µM,> 100 µM,> 21.8 µM,0.813 µM,> 37.7 µM,,,,,
CC(O[Si](c1ccccc1)(c1ccccc1)C(C)(C)C)[C@H](NC(=O)OC(C)(C)C)C(=O)O (stereo not given in full),79.7 µM,> 100 µM,> 100 µM,,> 100 µM,> 100 µM,> 100 µM,> 100 µM,> 100 µM,> 100 µM,,,,,
Cc1c(-c2ccccc2)c(C#N)c2nnn(-c3cccc(Cl)c3)c(=O)n12,> 100 µM,> 100 µM,,> 100 µM,> 100 µM,> 100 µM,> 100 µM,> 100 µM,> 100 µM,> 100 µM,,,,,
N#Cc1c(N)c(C#N)c2c(c1-c1ccc(Cl)cc1)COc1ccccc1-2,> 100 µM,40.3 µM,> 100 µM,98.9 µM,> 100 µM,> 100 µM,> 100 µM,,> 100 µM,39.9 µM,,,,,
Oc1cc(CN2COc3ccccc32)c(O)cc1CNC1CCCCC1,47.6 µM,52.3 µM,> 100 µM,,32.3 µM,> 100 µM,33.6 µM,> 100 µM,30.6 µM,64.5 µM,,,,,
O=C(O)c1ccc(Nc2nc3cc(C(F)(F)F)ccc3nc2-c2ccccc2)cc1,30.6 µM,28.2 µM,,69.6 µM,75.7 µM,97.7 µM,> 100 µM,27.9 µM,> 100 µM,> 100 µM,,,,,
O=C1NC(S(=O)(=O)O)=NNC12c1ccccc1-c1ccccc12,> 10 µM,> 10 µM,> 10 µM,> 10 µM,> 10 µM,,> 10 µM,> 10 µM,> 10 µM,> 10 µM,,,,,
